Conditions: subcutaneous 5 mg in sesame oil vs rectal 15 mg (Diastat); plasma over 8 hours; FIG. 1

**Q.** For `CN1C(=O)CN=C(c2ccccc2)c2cc(Cl)ccc21` [diazepam], which “rise of levels in blood, subcutaneous delivery compared with rectal delivery” value is on record?
**A.** rise more quickly than via rectal delivery
